# Columns and labels:
# Format in all cases: biochemical
# Conditions in all cases: 20 nM
# PDE4B1 = biological target: T1, PDE4B1 (Homo sapiens, UniProt Q07343); assay: PDE4 inhibitory activity assay (FAM-cAMP enzymatic reaction), PDE4B1
# T1 construct: purchased BPS 60041
# Summary of the method: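 Each isoform is incubated with test compound for 15 min at room temperature before FAM-cAMP substrate starts a 30-min reaction.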
# PDE4D2 = PDE4D2 (Homo sapiens, UniProt Q08499); assay: PDE4 inhibitory activity assay (FAM-cAMP enzymatic reaction), PDE4D2
# Summary of the method: (§1)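 Read-out: fluorescence-based detection of FAM-cAMP turnover on a multilabel counter, with IC50 derived by fitting inhibition rates. The reaction ran 30 min at room temperature after a 15-min enzyme–compound preincubation, followed by stopping and 60 min further incubation.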
# PDE4A1A = biological target: T2, PDE4A1A (Homo sapiens, UniProt P27815); assay: PDE4 inhibitory activity assay (FAM-cAMP enzymatic reaction), PDE4A1A
# T2 construct: purchased BPS 60040
# Summary of the method: as §1
# PDE4D2, sequence (Q08499 303-809): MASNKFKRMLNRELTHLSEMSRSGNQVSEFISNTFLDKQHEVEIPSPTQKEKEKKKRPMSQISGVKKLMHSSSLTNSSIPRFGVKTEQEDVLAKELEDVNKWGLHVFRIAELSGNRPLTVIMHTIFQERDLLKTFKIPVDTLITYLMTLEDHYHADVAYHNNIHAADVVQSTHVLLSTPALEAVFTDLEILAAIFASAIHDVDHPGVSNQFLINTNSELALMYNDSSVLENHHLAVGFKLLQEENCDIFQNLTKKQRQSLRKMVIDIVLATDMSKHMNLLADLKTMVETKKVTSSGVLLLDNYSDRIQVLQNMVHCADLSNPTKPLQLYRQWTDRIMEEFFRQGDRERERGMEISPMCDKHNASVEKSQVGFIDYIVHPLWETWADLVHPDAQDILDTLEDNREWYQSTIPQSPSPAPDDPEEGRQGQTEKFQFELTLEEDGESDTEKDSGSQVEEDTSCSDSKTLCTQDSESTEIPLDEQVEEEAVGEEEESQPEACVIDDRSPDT
# T2 sequence (P27815 1-647 isoform P27815-4): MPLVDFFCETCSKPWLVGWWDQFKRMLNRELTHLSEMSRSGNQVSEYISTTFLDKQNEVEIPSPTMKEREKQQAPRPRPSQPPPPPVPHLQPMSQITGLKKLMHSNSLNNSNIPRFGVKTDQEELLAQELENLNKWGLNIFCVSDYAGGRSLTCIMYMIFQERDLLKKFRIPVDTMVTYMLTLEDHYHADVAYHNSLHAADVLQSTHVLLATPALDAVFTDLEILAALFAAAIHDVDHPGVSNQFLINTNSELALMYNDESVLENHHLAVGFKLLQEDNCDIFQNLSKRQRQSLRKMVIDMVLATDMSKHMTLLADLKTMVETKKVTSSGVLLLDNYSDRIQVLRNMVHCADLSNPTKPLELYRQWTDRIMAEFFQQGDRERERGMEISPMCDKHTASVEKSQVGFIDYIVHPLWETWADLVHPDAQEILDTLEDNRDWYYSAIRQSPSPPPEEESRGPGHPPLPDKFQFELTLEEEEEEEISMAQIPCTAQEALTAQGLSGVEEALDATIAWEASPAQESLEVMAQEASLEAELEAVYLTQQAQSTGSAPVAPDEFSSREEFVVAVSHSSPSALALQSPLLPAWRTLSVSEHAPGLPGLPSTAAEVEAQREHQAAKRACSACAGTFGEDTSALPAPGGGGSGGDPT
# T1 sequence (Q07343 whole entry): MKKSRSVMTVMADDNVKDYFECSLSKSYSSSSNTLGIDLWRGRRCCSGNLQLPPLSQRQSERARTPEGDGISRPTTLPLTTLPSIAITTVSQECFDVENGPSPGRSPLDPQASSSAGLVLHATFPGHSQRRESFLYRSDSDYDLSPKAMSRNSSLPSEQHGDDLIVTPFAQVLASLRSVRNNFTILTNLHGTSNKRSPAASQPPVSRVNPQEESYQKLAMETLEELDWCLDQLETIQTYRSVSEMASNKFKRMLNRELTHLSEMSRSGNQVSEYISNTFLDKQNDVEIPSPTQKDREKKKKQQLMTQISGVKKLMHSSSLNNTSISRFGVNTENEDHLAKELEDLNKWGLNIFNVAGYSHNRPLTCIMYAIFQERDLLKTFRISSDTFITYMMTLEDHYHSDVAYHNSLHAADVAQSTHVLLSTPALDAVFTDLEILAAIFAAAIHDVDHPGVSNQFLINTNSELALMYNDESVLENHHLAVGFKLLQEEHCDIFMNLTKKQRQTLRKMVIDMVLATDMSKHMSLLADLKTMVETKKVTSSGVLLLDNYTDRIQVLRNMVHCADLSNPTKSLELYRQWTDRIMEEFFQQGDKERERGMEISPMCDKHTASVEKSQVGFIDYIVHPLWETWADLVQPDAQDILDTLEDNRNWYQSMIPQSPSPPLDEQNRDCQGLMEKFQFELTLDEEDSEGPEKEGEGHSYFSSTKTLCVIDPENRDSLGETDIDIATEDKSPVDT
SMILES,PDE4 B1 inhibitory effect at 20 nM (PDE4B1),PDE4 D2 inhibitory effect at 20 nM (PDE4D2),PDE4 A1 inhibitory effect at 20 nM (PDE4A1A)
"CCOc1nc([C@@H](CS(C)(=O)=O)n2c(=O)[nH]c3cc(-c4cc(C)ccc4F)cnc32)ccc1OC [Ex. 113, (S)-6-(2-fluoro-5-methylphenyl)-3-(1-(6-ethoxy-5-methoxypyridin-2-yl)-2-(methylsulfonyl)ethyl)-1H-imidazo[4,5-b]pyridin-2(3H)-one]",+,+,+
"CCOc1nc([C@@H](CS(C)(=O)=O)n2c(=O)[nH]c3c(C)c(-c4ccc(F)cc4OC)cnc32)ccc1OC [Ex. 45, (S)-6-(4-fluoro-2-methoxyphenyl)-3-(1-(6-ethoxy-5-methoxypyridin-2-yl)-2-(methylsulfonyl)ethyl)-7-methyl-1H-imidazo[4,5-b]pyridin-2(3H)-one]",+,+,+
"CCOc1nc([C@@H](CS(C)(=O)=O)n2c(=O)[nH]c3cc(-c4c(C)cccc4C)cnc32)ccc1OC [Ex. 105, (S)-6-(2,6-dimethylphenyl)-3-(1-(6-ethoxy-5-methoxypyridin-2-yl)-2-(methylsulfonyl)ethyl)-1H-imidazo[4,5-b]pyridin-2(3H)-one]",+,+,+
"CCOc1nc([C@@H](CS(C)(=O)=O)n2c(=O)[nH]c3cc(-c4cc(C)ccc4F)ccc32)ccc1OC [Ex. 175, (S)-5-(2-fluoro-5-methylphenyl)-1-(1-(6-ethoxy-5-methoxypyridin-2-yl)-2-(methylsulfonyl)ethyl)-1H-benzo[d]imidazol-2(3H)-one]",+,+,+
"CCOc1nc([C@@H](CS(C)(=O)=O)n2c(=O)[nH]c3c(C)c(-c4cccc(OC)c4F)cnc32)ccc1OC [Ex. 42, (S)-6-(2-fluoro-3-methoxyphenyl)-3-(1-(6-ethoxy-5-methoxypyridin-2-yl)-2-(methylsulfonyl)ethyl)-7-methyl-1H-imidazo[4,5-b]pyridin-2(3H)-one]",+,+,+
"CCOc1nc([C@@H](CS(C)(=O)=O)n2c(=O)n(C)c3cc(-c4cccc(C)c4F)ccc32)ccc1OC [Ex. 178, (S)-5-(2-fluoro-3-methylphenyl)-1-(1-(6-ethoxy-5-methoxypyridin-2-yl)-2-(methylsulfonyl)ethyl)-3-methyl-1H-benzo[d]imidazol-2(3H)-one]",+,+,+
"CCOc1nc([C@H](CS(C)(=O)=O)n2c(=O)n(CC(F)(F)F)c3c(C)c(-c4ccccc4)cnc32)ccc1OC [Ex. 54, (R)-3-(1-(6-ethoxy-5-methoxypyridin-2-yl)-2-(methylsulfonyl)ethyl)-7-methyl-6-phenyl-1-(2,2,2-trifluoroethyl)-1H-imidazo[4,5-b]pyridin-2(3H)-one]",−,−,−
"CCOc1nc([C@H](CS(C)(=O)=O)n2c(=O)[nH]c3cc(-c4ccccn4)ccc32)ccc1OC [Ex. 195, (R)-1-(1-(6-ethoxy-5-methoxypyridin-2-yl)-2-(methylsulfonyl)ethyl)-5-(pyridin-2-yl)-1H-benzo[d]imidazol-2(3H)-one]",−,−,−
"CCOc1nc([C@@H](CS(C)(=O)=O)n2c(=O)n(CC)c3c(C)c(-c4ccccc4C)cnc32)ccc1OC [Ex. 50, (S)-3-(1-(6-ethoxy-5-methoxypyridin-2-yl)-2-(methylsulfonyl)ethyl)-1-ethyl-7-methyl-6-(o-methylphenyl)-1H-imidazo[4,5-b]pyridin-2(3H)-one]",+,+,+
"CCOc1nc([C@@H](CS(C)(=O)=O)N2Cc3cccc(NC(C)=O)c3C2=O)ccc1OC [Ex. 215, (S)—N-(2-(1-(6-ethoxy-5-methoxypyridin-2-yl)-2-(methylsulfonyl)ethyl)-3-oxoisoindolin-4-yl)acetamide]",+,+,+
"CCOc1nc([C@@H](CS(C)(=O)=O)n2c(=O)n(C)c3cc(-c4ccccc4C(F)(F)F)ccc32)ccc1OC [Ex. 147, (S)-1-(1-(6-ethoxy-5-methoxypyridin-2-yl)-2-(methylsulfonyl)ethyl)-5-(2-(trifluoromethyl)phenyl)-3-methyl-1H-benzo[d]imidazol-2(3H)-one]",+,+,+
"CCOc1nc([C@@H](CS(C)(=O)=O)n2c(=O)n(CC(F)F)c3c(C)c(-c4ccccc4F)cnc32)ccc1OC [Ex. 56, (S)-1-(2,2-difluoroethyl)-3-(1-(6-ethoxy-5-methoxypyridin-2-yl)-2-(methylsulfonyl)ethyl)-6-(2-fluorophenyl)-7-methyl-1H-imidazo[4,5-b]pyridin-2(3H)-one]",+,+,+
"CCOc1nc([C@@H](CS(C)(=O)=O)N2C(=O)c3csc(NC(=O)C4CC4)c3C2=O)ccc1OC [Ex. 227, (S)—N-(5-(1-(6-ethoxy-5-methoxypyridin-2-yl)-2-(methylsulfonyl)ethyl)-4,6-dioxo-5,6-dihydro-4H-thieno[3,4-c]pyrrol-1-yl)cyclopropanecarboxamide]",+,+,+
"CCOc1nc([C@H](CS(C)(=O)=O)n2c(=O)[nH]c3cc(-c4cc(F)ccc4F)cnc32)ccc1OC [Ex. 98, (R)-6-(2,5-difluorophenyl)-3-(1-(6-ethoxy-5-methoxypyridin-2-yl)-2-(methylsulfonyl)ethyl)-1H-imidazo[4,5-b]pyridin-2(3H)-one]",−,−,−
"CCOc1nc([C@@H](CS(C)(=O)=O)n2c(=O)[nH]c3c(-c4ccccc4)cccc32)ccc1OC [Ex. 206, (S)-1-(1-(6-ethoxy-5-methoxypyridin-2-yl)-2-(methylsulfonyl)ethyl)-4-phenyl-1H-benzo[d]imidazol-2(3H)-one]",+,+,+
"CCOc1nc([C@@H](CS(C)(=O)=O)n2c(=O)[nH]c3cc(-c4cccc(F)c4F)ccc32)ccc1OC [Ex. 152, (S)-5-(2,3-difluorophenyl)-1-(1-(6-ethoxy-5-methoxypyridin-2-yl)-2-(methylsulfonyl)ethyl)-1H-benzo[d]imidazol-2(3H)-one]",+,+,+
"CCOc1nc([C@@H](CS(C)(=O)=O)n2c(=O)[nH]c3c(C)c(-c4ccccc4)cnc32)ccc1OC(F)F [Ex. 61, (S)-3-(1-(5-(difluoromethoxy)-6-ethoxypyridin-2-yl)-2-(methylsulfonyl)ethyl)-7-methyl-6-phenyl-1H-imidazo[4,5-b]pyridin-2(3H)-one]",+,+,+
"CCOc1nc([C@@H](CS(C)(=O)=O)n2c(=O)n(CC(F)F)c3c(C)c(-c4ccccc4)cnc32)ccc1OC(C)C [Ex. 70, (S)-1-(2,2-difluoroethyl)-3-(1-(6-ethoxy-5-isopropoxypyridin-2-yl)-2-(methylsulfonyl)ethyl)-7-methyl-6-phenyl-1H-imidazo[4,5-b]pyridin-2(3H)-one]",+,+,+
"CCOc1nc([C@@H](CS(C)(=O)=O)n2c(=O)[nH]c3c(C)c(-c4cc(C)ccc4C)cnc32)ccc1OC [Ex. 32, (S)-6-(2,5-dimethylphenyl)-3-(1-(6-ethoxy-5-methoxypyridin-2-yl)-2-(methylsulfonyl)ethyl)-7-methyl-1H-imidazo[4,5-b]pyridin-2(3H)-one]",+,+,+
"CCOc1nc([C@H](CS(C)(=O)=O)N2Cc3cccc(NC(=O)C4CC4)c3C2=O)ccc1OC [Ex. 218, (R)—N-(2-(1-(6-ethoxy-5-methoxypyridin-2-yl)-2-(methylsulfonyl)ethyl)-3-oxoisoindolin-4-yl)cyclopropanecarboxamide]",+,+,+
"CCOc1nc([C@@H](CS(C)(=O)=O)n2c(=O)n(C)c3cc(-c4cc(F)ccc4F)ccc32)ccc1OC [Ex. 161, (S)-5-(2,5-difluorophenyl)-1-(1-(6-ethoxy-5-methoxypyridin-2-yl)-2-(methylsulfonyl)ethyl)-3-methyl-1H-benzo[d]imidazol-2(3H)-one]",+,+,+
"CCOc1nc([C@@H](CS(C)(=O)=O)n2c(=O)n(C)c3cc(-c4ccc(F)cc4)cnc32)ccc1OC [Ex. 128, (S)-3-(1-(6-ethoxy-5-methoxypyridin-2-yl)-2-(methylsulfonyl)ethyl)-6-(4-fluorophenyl)-1-methyl-1H-imidazo[4,5-b]pyridin-2(3H)-one]",+,+,+

# — US20230141101A1, “PDE4 INHIBITOR COMPOUND AND MEDICAL USE THEREOF” (Suzhou Longbotai Pharmaceuticals Co., Ltd., priority 2020, published 2023)
